Measured values from patent US8415469B2, “Compounds and methods for kinase modulation, and indications therefor” (Plexxikon Inc., priority 2005, dated 2013).

How the values were obtained:
Assay type in all cases: biochemical
c-Raf-1 = target: T1, c-Raf-1 (Homo sapiens, UniProt P04049); assay: AlphaScreen kinase assay, c-Raf-1; details: read-out: IC50, activity toward kinase c-Raf-1
T1 construct: purchased Upstate Biotechnology

Src = target: T2, Src (Homo sapiens, UniProt P12931); assay: AlphaScreen kinase assay, Src; details: read-out: IC50, activity toward kinase Src
T2 construct: P1144. pET-N6 BI-PTP SRC V86-L536-X; made in house

PKC theta = target: T3, PKC theta (Homo sapiens, UniProt Q04759); assay: Z'-Lyte FRET kinase assay (Invitrogen), PKC theta; details: read-out: IC50, activity toward kinase PKC theta
T3 construct: purchased Invitrogen (Carlsbad, Calif.), screening service
Method in brief: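 Serially diluted compound (1% DMSO final) is mixed with kinase plus 2 μM peptide substrate in pH 7.5 HEPES buffer, then ATP is added to 10 μM. After 1 h at room temperature, site-specific protease is added for another hour, reactions are stopped and fluorescence ratio measured.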

Akt3 = Akt3 (Homo sapiens, UniProt Q9Y243); assay: AlphaScreen kinase assay, Akt3; details: read-out: IC50, activity toward kinase Akt3
Method in brief: (§1)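 Eight concentrations per compound (1:3 serial dilution of 20 mM DMSO stock) were tested. Read-out: AlphaScreen signal from phospho-antibody acceptor and streptavidin donor beads bound to biotinylated peptide substrate, reduced on kinase inhibition.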

Itk = target: T4, Itk (Homo sapiens, UniProt Q08881); assay: AlphaScreen kinase assay, Itk; details: read-out: IC50, activity toward kinase Itk
T4 sequence (Q08881 1-620): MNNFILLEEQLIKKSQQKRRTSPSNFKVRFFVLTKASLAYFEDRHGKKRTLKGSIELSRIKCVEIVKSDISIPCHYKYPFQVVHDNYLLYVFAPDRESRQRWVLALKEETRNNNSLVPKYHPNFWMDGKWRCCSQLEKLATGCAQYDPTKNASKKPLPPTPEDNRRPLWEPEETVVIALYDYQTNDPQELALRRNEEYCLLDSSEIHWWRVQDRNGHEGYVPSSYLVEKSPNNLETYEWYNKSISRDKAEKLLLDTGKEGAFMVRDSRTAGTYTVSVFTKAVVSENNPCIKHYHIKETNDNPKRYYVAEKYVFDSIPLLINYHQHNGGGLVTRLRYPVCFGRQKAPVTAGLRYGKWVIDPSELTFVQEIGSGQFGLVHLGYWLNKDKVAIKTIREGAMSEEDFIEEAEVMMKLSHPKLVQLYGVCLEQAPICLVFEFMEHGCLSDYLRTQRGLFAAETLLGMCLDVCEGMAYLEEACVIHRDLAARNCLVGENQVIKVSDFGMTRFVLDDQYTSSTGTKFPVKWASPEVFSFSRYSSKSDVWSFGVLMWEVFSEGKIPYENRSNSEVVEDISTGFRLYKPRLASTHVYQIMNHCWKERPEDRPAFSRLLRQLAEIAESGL
Method in brief: as §1

Stk6 = target: T5, Stk6 (Homo sapiens, UniProt O14965); assay: Z'-Lyte FRET kinase assay (Invitrogen), Stk6; details: read-out: IC50, activity toward kinase Stk6
T5 construct: purchased Invitrogen (Carlsbad, Calif.), screening service
T5 sequence (O14965 1-403): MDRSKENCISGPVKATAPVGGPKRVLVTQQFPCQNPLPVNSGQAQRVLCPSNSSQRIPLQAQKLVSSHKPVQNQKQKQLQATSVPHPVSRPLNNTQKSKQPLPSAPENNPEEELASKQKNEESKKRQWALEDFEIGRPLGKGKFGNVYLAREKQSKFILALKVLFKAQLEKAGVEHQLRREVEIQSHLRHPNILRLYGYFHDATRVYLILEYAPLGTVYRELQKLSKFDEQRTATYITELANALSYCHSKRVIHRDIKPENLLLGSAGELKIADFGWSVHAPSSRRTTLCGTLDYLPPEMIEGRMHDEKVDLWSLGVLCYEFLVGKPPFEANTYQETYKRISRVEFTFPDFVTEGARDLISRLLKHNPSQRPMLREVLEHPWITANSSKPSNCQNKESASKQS

MAP2K1 = target: T6, MAP2K1 (Homo sapiens, UniProt Q02750); assay: Z'-Lyte FRET kinase assay (Invitrogen), MAP2K1; details: read-out: IC50, activity toward kinase MAP2K1
T6 construct: purchased Invitrogen (assay run by Invitrogen)

Measured: IC50

Chain of Akt3 (Q9Y243 whole entry): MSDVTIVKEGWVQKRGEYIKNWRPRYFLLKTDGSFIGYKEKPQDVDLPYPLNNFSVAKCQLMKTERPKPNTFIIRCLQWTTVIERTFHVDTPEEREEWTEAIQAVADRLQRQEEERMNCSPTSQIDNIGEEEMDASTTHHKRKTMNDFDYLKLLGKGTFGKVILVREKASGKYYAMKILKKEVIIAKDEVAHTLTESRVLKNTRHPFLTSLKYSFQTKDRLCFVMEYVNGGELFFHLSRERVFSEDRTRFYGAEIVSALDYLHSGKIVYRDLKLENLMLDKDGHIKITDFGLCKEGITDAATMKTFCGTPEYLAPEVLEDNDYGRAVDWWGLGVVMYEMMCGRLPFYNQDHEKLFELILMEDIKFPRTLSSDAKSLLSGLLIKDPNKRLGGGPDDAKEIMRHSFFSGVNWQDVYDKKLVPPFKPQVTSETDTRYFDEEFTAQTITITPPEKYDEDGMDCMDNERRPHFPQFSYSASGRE
T3 sequence (Q04759 whole entry): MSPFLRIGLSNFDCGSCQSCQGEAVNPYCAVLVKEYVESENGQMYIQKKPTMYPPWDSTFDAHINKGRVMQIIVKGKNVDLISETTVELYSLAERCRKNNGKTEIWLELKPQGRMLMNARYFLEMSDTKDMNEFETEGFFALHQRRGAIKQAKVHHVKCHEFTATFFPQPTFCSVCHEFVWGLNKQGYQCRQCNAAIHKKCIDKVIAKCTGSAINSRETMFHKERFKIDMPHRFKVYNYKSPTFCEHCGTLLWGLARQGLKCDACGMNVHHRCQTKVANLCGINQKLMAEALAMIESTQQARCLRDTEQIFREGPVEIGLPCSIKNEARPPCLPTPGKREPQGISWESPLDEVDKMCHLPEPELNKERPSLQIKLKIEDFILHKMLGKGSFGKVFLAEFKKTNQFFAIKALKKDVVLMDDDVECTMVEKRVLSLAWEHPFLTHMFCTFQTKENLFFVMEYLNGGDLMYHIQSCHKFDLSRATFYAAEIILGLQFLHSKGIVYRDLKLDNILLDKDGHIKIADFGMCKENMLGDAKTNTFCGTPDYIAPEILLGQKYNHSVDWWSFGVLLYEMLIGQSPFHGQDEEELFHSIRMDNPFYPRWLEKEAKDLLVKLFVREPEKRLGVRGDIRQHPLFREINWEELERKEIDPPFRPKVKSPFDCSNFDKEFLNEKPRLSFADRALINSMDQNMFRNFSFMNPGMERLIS
T6 sequence (Q02750 whole entry): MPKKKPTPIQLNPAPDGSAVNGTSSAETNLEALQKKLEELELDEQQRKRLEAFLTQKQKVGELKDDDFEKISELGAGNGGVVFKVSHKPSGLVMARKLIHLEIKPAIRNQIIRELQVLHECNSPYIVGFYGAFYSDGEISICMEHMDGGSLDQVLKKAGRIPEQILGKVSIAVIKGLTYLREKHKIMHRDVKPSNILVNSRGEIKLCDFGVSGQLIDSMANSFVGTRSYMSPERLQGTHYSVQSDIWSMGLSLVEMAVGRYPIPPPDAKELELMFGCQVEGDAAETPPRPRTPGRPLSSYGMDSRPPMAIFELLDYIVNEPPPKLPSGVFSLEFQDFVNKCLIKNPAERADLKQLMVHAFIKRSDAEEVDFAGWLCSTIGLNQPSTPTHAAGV
T2 sequence (P12931 with tags, fused parts or gaps): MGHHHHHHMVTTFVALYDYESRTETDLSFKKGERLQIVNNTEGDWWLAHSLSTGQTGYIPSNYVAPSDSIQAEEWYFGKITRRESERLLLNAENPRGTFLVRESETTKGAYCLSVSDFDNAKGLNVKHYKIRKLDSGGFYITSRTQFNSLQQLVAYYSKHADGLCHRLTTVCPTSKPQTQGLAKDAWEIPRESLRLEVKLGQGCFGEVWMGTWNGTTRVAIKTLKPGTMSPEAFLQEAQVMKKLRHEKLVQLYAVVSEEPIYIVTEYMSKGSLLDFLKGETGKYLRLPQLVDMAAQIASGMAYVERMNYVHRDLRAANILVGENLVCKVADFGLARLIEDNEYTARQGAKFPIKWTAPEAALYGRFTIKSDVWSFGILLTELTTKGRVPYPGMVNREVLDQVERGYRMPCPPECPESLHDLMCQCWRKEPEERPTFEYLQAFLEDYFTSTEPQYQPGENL
T1 sequence (P04049 whole entry): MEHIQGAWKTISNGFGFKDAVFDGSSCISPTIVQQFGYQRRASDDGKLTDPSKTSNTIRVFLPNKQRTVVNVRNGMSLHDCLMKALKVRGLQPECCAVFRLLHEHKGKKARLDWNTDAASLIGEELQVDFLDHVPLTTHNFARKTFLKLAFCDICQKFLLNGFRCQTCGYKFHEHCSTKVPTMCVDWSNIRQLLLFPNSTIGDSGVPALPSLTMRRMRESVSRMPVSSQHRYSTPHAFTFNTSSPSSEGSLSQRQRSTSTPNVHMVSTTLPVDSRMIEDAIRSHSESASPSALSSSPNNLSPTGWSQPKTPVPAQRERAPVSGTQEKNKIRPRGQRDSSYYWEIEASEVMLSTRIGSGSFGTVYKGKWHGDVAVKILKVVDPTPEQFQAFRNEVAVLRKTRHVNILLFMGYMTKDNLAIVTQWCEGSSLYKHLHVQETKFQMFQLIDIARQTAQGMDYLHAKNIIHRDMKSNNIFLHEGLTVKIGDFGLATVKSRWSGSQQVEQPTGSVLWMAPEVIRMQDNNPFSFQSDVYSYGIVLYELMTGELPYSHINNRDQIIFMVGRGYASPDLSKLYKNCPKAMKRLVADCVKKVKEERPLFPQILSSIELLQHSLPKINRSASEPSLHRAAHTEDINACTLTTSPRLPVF

Nc1cccc(-c2cnc3[nH]cc(C(=O)c4cc(O)ccc4F)c3c2)c1 [Compound P-0002]
≤ 10 µM: all assays above

CS(=O)(=O)c1cccc(-c2cnc3[nH]cc(C(=O)c4cc(O)ccc4F)c3c2)c1 [Compound P-0008, (2-Fluoro-5-hydroxy-phenyl)-[5-(3-methanesulfonyl-phenyl)-1H-pyrrolo[2,3-b]pyridin-3-yl]-methanone]
≤ 10 µM: all assays above

Cc1c(O)cccc1C(=O)c1c[nH]c2ncc(-c3cccnc3)cc12 [Compound P-0006, (3-Hydroxy-2-methyl-phenyl)-(5-pyridin-3-yl-1H-pyrrolo[2,3b]pyridin-3-yl)-methanone]
not listed: Stk6
≤ 10 µM: all other assays above

O=C(c1ccc(O)cc1)c1c[nH]c2ncc(-c3cccs3)cc12 [Compound P-0024, (4-Hydroxy-phenyl)-(5-thiophen-2-yl-1H-pyrrolo[2,3-b]pyridin-3-yl)-methanone]
≤ 10 µM: c-Raf-1 | PKC theta | Akt3 | Itk

Nc1cccc(-c2cnc3[nH]cc(C(=O)c4cccc(O)c4F)c3c2)c1 [Compound P-0004, [5-(3-amino-phenyl)-1H-pyrrolo[2,3-b]pyridin-3-yl]-(2-fluoro-3-hydroxy-phenyl)methanone]
not listed: Stk6 | MAP2K1
≤ 10 µM: all other assays above

O=C(c1cccc(O)c1)c1c[nH]c2ncc(Nc3ccccc3)cc12 [Compound P-0025]
not listed: Stk6 | MAP2K1
≤ 10 µM: all other assays above

Nc1cccc(-c2cnc3[nH]cc(C(=O)c4cccc(O)c4)c3c2)c1 [Compound P-0003]
not listed: c-Raf-1
≤ 10 µM: all other assays above
